Data taken from US20060014730A1, “Ansamycin formulations and methods for producing and using same” (Conforma Therapeutics Corporation, priority 2002, published 2006).
Read-outs that look alike come from different tables or passages of the source.

Columns and labels:
[1] = test system: adult patients with advanced solid tumors; conditions: daily 1-hour infusion for 5 days every three weeks; cited from earlier work
[2] = cited from earlier work; for Cmax: human, in vivo
[3] = Drug concentration achieved in the emulsion; format: physicochemical
[4] = Dissolution of 17-AAG in Phospholipon in Miglyol solution without ethanol; format: physicochemical; conditions: lower melting point form crystallized from isopropanol rather than ethanol; room temperature
Description: Alternatively, 17-AAG can be brought […], adding to this the drug, e.g., 17-AAG, and mixing, e.g., by stirring and/or sonication.

[5] = adult patients, daily 1-hour infusion for 5 days every three weeks

Structure (SMILES): C=CCNC1=C2C[C@@H](C)C[C@H](OC)[C@H](O)[C@@H](C)/C=C(\C)[C@H](OC(N)=O)[C@@H](OC)/C=C\C=C(/C)C(=O)NC(=CC1=O)C2=O [Compound 17-AAG, 17-allylamino-geldanamycin]
- maximum tolerated dose (MTD) [1]: 40 mg/m^2
- clearance (mean+/-SD) [2, 5]: 41.0 ± 13.5 L/h
- steady-state volume (mean+/-SD) [2, 5]: 86.6+/−34.6 L/m^2
- terminal half-life (mean+/-SD) [2, 5]: 2.5 ± 0.5 h
- Cmax ([2]; 40 mg/m2): 1860 nM
- Cmax ([2]; 56 mg/m2): 3170 nM
- concentration achieved in the oil phase alone ([3]; oil phase alone): 20000 to 30000 µg/mL
- concentration achieved overall ([3]; whole emulsion): ≤ 3000 µg/mL
- dissolution into the Phospholipon in Miglyol solution [4]: more readily can be dissolved
